Experimental data: patent US20200163984A1, “USE OF ISOVALERYL SPIRAMYCIN I, II AND/OR III IN MANUFACTURING MEDICAMENT FOR TREATING AND/OR PREVENTING TUMOR, AND MEDICAMENT” (SHENYANG FUYANG PHARMACEUTICAL TECHNOLOGY CO., LTD., priority 2017, published 2020)

Assays:
[1] = tested on: transplanted tumor of human esophageal cancer cell TE-1; assay: TE-1 transplanted tumor in nude mice
Procedure: (§1) Then cell concentration was adjusted to 1×10^7/ml with matrigel, then each nude mouse was inoculated subcutaneously with 0.2 ml of cells at its right armpit and recorded as the first day of inoculation. When the tumor grows to be greater than or equal to 100 mm^3, the mice were randomly divided into 11 groups with 6 mice in each group: a model group, a cyclophosphamide group, isovaleryl spiramycin I groups with doses of 25, 50 and 100 mg/kg, isovaleryl spiramycin II groups with doses of 25, 50 and 100 mg/kg, and isovaleryl spiramycin III groups with doses of 25, 50 and 100 mg/kg. Each group was continuously administered intragastrically for 30 days with a dose of 20 ml/kg. The mice were sacrificed the next day after drug withdrawal and the indicators were tested. The long diameter and short diameter of the tumor, and the body weight of each mouse were recorded every 3 days from drug administration to nude mouse sacrifice.
(§2) The body weight of the nude mice and the long diameter (a) and short diameter (b) of the transplanted tumor were measured every 3 days, and the tumor volume (v), relative tumor volume (RTV) and relative tumor proliferation rate (T/C) are calculated respectively according to the following formulas, wherein V=a×b^2/2; RTV=V/V0 (V0 is the tumor volume before administration, V is the tumor volume before sacrifice), and T/C (%)=treatment group RTV/model control group RTV×100%.
(§3) Each mouse was weighed and sacrificed. After the tumor was completely stripped off from the body of the mouse, the non-tumor tissues such as blood stains and fat were removed to weigh the tumor and calculate the tumor growth inhibition rate. The average tumor weight of each group of mice is used as an indicator of efficacy. Tumor growth inhibition rate (%)=(1−the average tumor weight of the treatment group/the average tumor weight of the model group)×100%.

[2] = tested on: transplanted tumor of human breast cancer cell MDA-MB-231; assay: MDA-MB-231 transplanted tumor in nude mice
Procedure: as §1, §2, §3

[3] = tested on: transplanted tumor of human hepatoma cell HepG-2; assay: HepG-2 transplanted tumor in nude mice; settings: for Tumor Volume (mm3) (d 1): d1
Procedure: as §1, §2, §3

[4] = tested on: transplanted tumor of human lymphoma cell U937; assay: U937 transplanted tumor in nude mice; settings: for Tumor Volume (mm3) (d 1): d1
Procedure: as §1, with “U937 cells in a logarithmic growth phase were taken and subjected to a trypan blue exclusion experiment showing that the cell viability was more than 95%, then the cells were subjected to trypsinization, centrifugation, and supernatant removal. Then” for “Then”
as §2, §3

[5] = TE-1, 12.5 mg/kg (low dose) i.g. 30 days
[6] = TE-1, 25 mg/kg (medium dose) i.g. 30 days
[7] = TE-1, 50 mg/kg (high dose) i.g. 30 days
[8] = MDA-MB-231, 25 mg/kg (low dose) i.g. 30 days
[9] = MDA-MB-231, 50 mg/kg (medium dose) i.g. 30 days
[10] = MDA-MB-231, 100 mg/kg (high dose) i.g. 30 days
[11] = HepG-2, high dose (100 mg/kg in method) i.g. 30 days
[12] = HepG-2, low dose (25 mg/kg in method) i.g. 30 days
[13] = HepG-2, medium dose (50 mg/kg in method) i.g. 30 days
[14] = U937, high dose (100 mg/kg in method) i.g. 30 days
[15] = U937, low dose (25 mg/kg in method) i.g. 30 days
[16] = U937, medium dose (50 mg/kg in method) i.g. 30 days

## CCC(=O)O[C@@H]1CC(=O)O[C@H](C)C/C=C/C=C/[C@H](O[C@H]2CC[C@H](N(C)C)[C@@H](C)O2)[C@H](C)C[C@H](CC=O)[C@H](O[C@@H]2O[C@H](C)[C@@H](O[C@H]3C[C@@](C)(O)[C@@H](OC(=O)CC(C)C)[C@H](C)O3)[C@H](N(C)C)[C@H]2O)[C@H]1OC [Isovaleryl spiramycin III, isovaleryl spiramycin III]
[1]; [5]
  Inhibition Rate (tumor growth inhibition rate): 22.64%
  Relative Tumor Proliferation Rate (T/C): 66.52%
  Relative Tumor Volume (RTV): 6.03 ± 5.27
  Tumor Volume (d 1): 173.45 ± 63.55 mm3
  Tumor Volume (d 30): 1254.78 ± 637.73 mm3
  Tumor Weight: 1.21 ± 0.53 g
[1]; [6]
  Inhibition Rate (tumor growth inhibition rate): 40.17%
  Relative Tumor Proliferation Rate (T/C): 50.71%
  Relative Tumor Volume (RTV): 5.02 ± 6.81
  Tumor Volume (d 1): 206.72 ± 79.72 mm3
  Tumor Volume (d 30): 1140.10 ± 819.08 mm3
  Tumor Weight: 0.94 ± 0.39 g
[1]; [7]
  Inhibition Rate (tumor growth inhibition rate): 65.46%
  Relative Tumor Proliferation Rate (T/C): 30.72%
  Relative Tumor Volume (RTV): 3.60 ± 1.29
  Tumor Volume (d 1): 331.09 ± 208.02 mm3
  Tumor Volume (d 30): 1106.23 ± 865.11 mm3
  Tumor Weight: 0.54 ± 0.22 g
[1]; TE-1, low, medium and high doses, P<0.05
  tumor volume and relative tumor volume compared with the model group: significantly lower
[1]; mouse, in vivo
  mouse weight compared with the model group: no significant changes
[2]; [8]
  Inhibition Rate (tumor growth inhibition rate): 24.35%
  Relative Tumor Proliferation Rate (T/C): 68.36%
  Relative Tumor Volume (RTV): 10.68 ± 2.47
  Tumor Volume (d 1): 114.53 ± 6.52 mm3
  Tumor Volume (d 30): 1217.28 ± 267.06 mm3
  Tumor Weight: 1.76 ± 0.20 g
[2]; [9]
  Inhibition Rate (tumor growth inhibition rate): 52.01%
  Relative Tumor Proliferation Rate (T/C): 50.12%
  Relative Tumor Volume (RTV): 7.83 ± 2.97
  Tumor Volume (d 1): 112.00 ± 10.40 mm3
  Tumor Volume (d 30): 860.48 ± 286.44 mm3
  Tumor Weight: 1.11 ± 0.54 g
[2]; MDA-MB-231, 50 mg/kg (medium dose) i.g. 30 days, listed as isovaleryl spiramycin III
  Inhibition Rate (tumor growth inhibition rate): 21.01%
[2]; [10]
  Inhibition Rate (tumor growth inhibition rate): 62.93%
  Relative Tumor Proliferation Rate (T/C): 35.27%
  Relative Tumor Volume (RTV): 5.51 ± 2.72
  Tumor Volume (d 1): 115.76 ± 7.04 mm3
  Tumor Volume (d 30): 647.02 ± 338.62 mm3
  Tumor Weight: 0.86 ± 0.44 g
[2]; MDA-MB-231, low, medium and high doses, P<0.05
  tumor volume and relative tumor volume compared with the model group: significantly lower
[2]; mouse, in vivo
  mouse weight compared with the model group: no significant changes
[3]; [11]
  Relative Tumor Proliferation Rate (T/C): 32.71%
  tumor growth inhibition rate: 63.28%
[3]; [12]
  Relative Tumor Proliferation Rate (T/C): 64.69%
  tumor growth inhibition rate: 38.92%
[3]; HepG-2, low, medium and high doses, P<0.05
  tumor volume and relative tumor volume compared with the model group: significantly lower
[3]; [13]
  Relative Tumor Proliferation Rate (T/C): 43.18%
  tumor growth inhibition rate: 60.54%
[3]; HepG-2 nude mice, 25 mg/kg
  Inhibition Rate (%): 38.92%
  Relative Tumor Proliferation Rate (T/C): 64.69%
  Relative Tumor Volume (RTV): 10.83 ± 2.47
  Tumor Weight: 1.48 ± 0.42 g
  Tumor Volume (mm3) (d 1): 116.67 ± 8.32 mm3
  Tumor Volume (mm3) (d30): 1261.48 ± 283.95 mm3
[3]; HepG-2 nude mice, 50 mg/kg
  Inhibition Rate (%): 60.54%
  Relative Tumor Proliferation Rate (T/C): 43.18%
  Relative Tumor Volume (RTV): 7.23 ± 2.57
  Tumor Weight: 0.96 ± 0.44 g
  Tumor Volume (mm3) (d 1): 119.43 ± 10.86 mm3
  Tumor Volume (mm3) (d30): 852.87 ± 293.29 mm3
[3]; HepG-2 nude mice, 100 mg/kg
  Inhibition Rate (%): 63.28%
  Relative Tumor Proliferation Rate (T/C): 32.71%
  Relative Tumor Volume (RTV): 5.48 ± 3.19
  Tumor Weight: 0.89 ± 0.46 g
  Tumor Volume (mm3) (d 1): 118.26 ± 6.57 mm3
  Tumor Volume (mm3) (d30): 641.99 ± 364.25 mm3
[3]; mouse, in vivo
  mouse weight compared with the model group: no significant changes
[3]; mouse, in vivo, 25 mg/kg
  Body Weight (g) (d1): 21.07 ± 1.24 g
  Body Weight (g) (d30): 23.94 ± 1.67 g
[3]; mouse, in vivo, 50 mg/kg
  Body Weight (g) (d1): 21.25 ± 1.86 g
  Body Weight (g) (d30): 24.36 ± 1.53 g
[3]; mouse, in vivo, 100 mg/kg
  Body Weight (g) (d1): 20.47 ± 2.24 g
  Body Weight (g) (d30): 23.64 ± 1.44 g
[4]; [14]
  Relative Tumor Proliferation Rate (T/C): 38.66%
  tumor growth inhibition rate: 61.77%
[4]; [15]
  Relative Tumor Proliferation Rate (T/C): 63.36%
  tumor growth inhibition rate: 41.19%
[4]; U937, low, medium and high doses, P<0.05
  tumor volume and relative tumor volume compared with the model group: significantly lower
[4]; [16]
  Relative Tumor Proliferation Rate (T/C): 49.30%
  tumor growth inhibition rate: 53.03%
[4]; U937 nude mice, 12.5 mg/kg
  Inhibition Rate (%): 41.19%
  Relative Tumor Proliferation Rate (T/C): 63.36%
  Relative Tumor Volume (RTV): 10.80 ± 3.02
  Tumor Weight: 1.14 ± 0.54 g
  Tumor Volume (mm3) (d 1): 119.70 ± 18.30 mm3
  Tumor Volume (mm3) (d30): 1314.25 ± 479.76 mm3
[4]; U937 nude mice, 25 mg/kg
  Inhibition Rate (%): 53.03%
  Relative Tumor Proliferation Rate (T/C): 49.30%
  Relative Tumor Volume (RTV): 8.40 ± 2.25
  Tumor Weight: 0.91 ± 0.51 g
  Tumor Volume (mm3) (d 1): 112.93 ± 27.42 mm3
  Tumor Volume (mm3) (d30): 939.79 ± 296.72 mm3
[4]; U937 nude mice, 50 mg/kg
  Inhibition Rate (%): 61.77%
  Relative Tumor Proliferation Rate (T/C): 38.66%
  Relative Tumor Volume (RTV): 6.59 ± 0.90
  Tumor Weight: 0.74 ± 0.18 g
  Tumor Volume (mm3) (d 1): 112.85 ± 21.90 mm3
  Tumor Volume (mm3) (d30): 728.49 ± 51.66 mm3
[4]; mouse, in vivo
  mouse weight compared with the model group: no significant changes
[4]; mouse, in vivo, 12.5 mg/kg
  Body Weight (g) (d1): 20.84 ± 0.68 g
  Body Weight (g) (d30): 20.92 ± 0.63 g
[4]; mouse, in vivo, 25 mg/kg
  Body Weight (g) (d1): 20.91 ± 0.58 g
  Body Weight (g) (d30): 20.74 ± 0.352 g
[4]; mouse, in vivo, 50 mg/kg
  Body Weight (g) (d1): 21.16 ± 0.61 g
  Body Weight (g) (d30): 21.24 ± 0.50 g
